Assay results published in patent publication US20020159981A1, “Methods of controlling proliferation and differentiation of stem and progenitor cells” (Gamida-Cell Ltd., priority 1999, published 2002).

Key:
[1] = test system: Cord blood-derived CD34 cells; assay: Short-term liquid culture of CD34 cells: cell number, CD34 cells, colony forming cells; assay type: cell-based, human; conditions: for reversal of TEPA activities by supplemented ions: TEPA-treated cultures, short to medium term (FIGS. 8, 9); for effects of transition metal chelators on CD34^+ cells: 10 μM, day 7 (FIG. 7)
Experimental: The interphase layer of mononuclear cells were collected, washed three times with Ca/Mg free phosphate buffered saline containing 1% bovine serum albumin (BSA). The cells were incubated for 30 min. at 4° C. with murine monoclonal anti CD34 antibody (0.5 μg/10^6 mononuclear cells) and thereafter isolated using the miniMACS apparatus (Miltenyi-Biotec, Bergisch, Gladbach, Germany) according to the manufacturer's protocol.
(§1) Culture procedures: For the expansion of progenitor cells, CD34^+ enriched fractions or unseparated mononuclear cells were seeded at about 1-3×10^4 cells/ml in either alpha minimal essential medium containing 10% preselected fetal calf serum (FCS) (both from GIBCO, Grand Island, N.Y.), or serum-free medium (Progenitor-34 medium, Life Technologies, Grand Island, N.Y.). The media were supplemented with a mixture of growth factors and transition metal chelators. The cultures were incubated at 37° C. in an atmosphere of 5% CO2 in air with extra humidity. Half of the medium was changed weekly with fresh medium containing all the supplements.
(§2) Cloning potential evaluations: The cloning potential of cells developed in the liquid culture was assayed, at different intervals, in semi-solid medium. The cells were washed and seeded in 35 mm dishes in methylcellulose containing alpha medium supplemented with recombinant growth factors (SCF, G-CSF, GM-CSF and EPO). Following 2 weeks incubation, the cultures were scored with an inverted microscope. Colonies were classified as blast, mixed, erythroid, myeloid, and megakaryocytic, according to their cellular composition.
Immunofluorescence staining: At different intervals, cells from the liquid cultures were assayed for CD34 antigen. Aliquots were harvested, washed and incubated on ice with FITC-labeled anti CD45 monoclonal antibody and either PE-labeled anti CD34 (HPCA-2) monoclonal antibody or PE-labeled control mouse Ig. After incubation, red cells were lysed with lysing solution, while the remaining cells were washed and analyzed by flow cytometer.
Flow cytometry: Cells were analyzed and sorted using FACStarPlus flow cytometer (Becton-Dickinson, Immunofluorometry systems, Mountain View, Calif.). Cells were passed at a rate of 1,000 cells/second through a […] nozzle, using saline as the sheath fluid. A 488 nm argon laser beam at 250 mW served as the light source for excitation. […] The PMTs was set at the appropriate voltage. Logarithmic amplification was applied for measurements of fluorescence and linear amplification—for forward light scatter. At least 10^4 cells were analyzed.
Cord blood-derived CD34 cells were plated in liquid culture in the presence of: FL—50 ng/ml, SCF—50 ng/ml, IL-6—50 ng/ml, with or without IL-3—20 ng/ml, with or without TEPA—10 μM. On day 7, the percentage of CD34 cells and the total cell number were determined. Aliquots equivalent to 1×10^3 initiating cells were assayed on days 0 and 7 for colony forming cells (CFU) by cloning in semi-solid medium. CFU expansion represents the ratio of CFU present on day 7 to CFU present on day 0.

[2] = test system: Cord blood-derived CD34 cells; assay: Long-term liquid culture of CD34 cells: proliferation, CFUc, differentiation status; assay type: cell-based, human; conditions: for cell proliferation and generation of CFUc in long-term cultures: long-term cultures (FIGS. 21, 22)
Experimental: as §1, §2
Morphological assessment: In order to characterize the resulting culture populations, aliquots of cells were deposited on a glass slide (cytocentrifuge, Shandon, Runcorn, UK), fixed and stained in May-Grunwald Giemsa. Other aliquots were stained by benzidine for intracellular hemoglobin.
TEPA effects on proliferation and clonability of long-term CD34^+ cultures: Long-term cultures were maintained for 3-5 weeks by weekly demi-depopulation (one half of the culture volume was removed and replaced by fresh medium and cytokines).
CD34^+ cells derived from human neonatal cord blood were purified by immunomagnetic method and then cultured in liquid medium supplemented with cytokines either with or without transition metal chelators. At weekly intervals, the cultures were demi-depopulated by removing half of the culture content (supernatant and cells) and replacing it with fresh medium, cytokines and the chelators. At the indicated weeks the cellular content of the cultures were quantified for total cells (by a manual microscopic/hemocytometric method), for CD34^+ cells (by immuno-flow cytometry) and for clonogenic cells (by cloning the cells in cytokine-supplemented semi-solid medium). The cultures were initiated with 1×10^4 cells, 50-80% of which were CD34^+ and 25-50% of which were CFUc. The results presented in FIGS. 11 to 24 were calculated per 1×10^4 initiating cells (the numbers were multiplied by the dilution factors).

[3] = test system: cord blood-derived CD34^+ cells; assay: Copper-chelating peptides on proliferation and clonability in CD34 cell cultures; assay type: cell-based; conditions: for decrease of cell number / decrease of clonogenic potential (CFUc): peptides 10 μM, cytokines 10 ng/ml each; for decrease of cell number: after 7 weeks (FIG. 25a); for decrease of clonogenic potential (CFUc): after 7 weeks (FIG. 25b); for effect on cell differentiation: second group of Copper chelators
Experimental: Culture procedures: For the expansion of progenitor cells, CD34^+ enriched fractions were seeded at 1×10^4 cells/ml in alpha minimal essential medium containing 10% preselected fetal calf serum (FCS) (both from GIBCO, Grand Island, N.Y.). The medium was supplemented with a mixture of growth factors and Copper chelators. The cultures were incubated at 37° C. in an atmosphere of 5% CO2 in air with extra humidity. Half of the medium was changed weekly with fresh medium containing all the supplements.
The cloning potential of the cultured cells was assayed in semi-solid medium. The cells were washed and seeded in 35 mm dishes in methylcellulose containing alpha medium supplemented with 30% FCS and further with recombinant growth factors (stem cell factor (SCF), G-CSF, GM-CSF and erythropoietin (EPO)). Following two week incubation, the cultures were scored with an inverted microscope. Colonies were classified as blast, mixed, erythroid, myeloid, and megakaryocytic, according to their cellular composition.
The effect of Copper-chelating peptides on proliferation and clonability in CD34 cell cultures: Cultures were initiated with 10^4 cord blood-derived CD34^+ cells by plating purified cells in liquid medium in the presence of SCF, FLT3 and IL-6 (50 ng/ml each) and the Copper-binding peptides, Gly-Gly-His (GGH) or Gly-His-Lys (GHL) (10 μM each), or the late-acting cytokines G-CSF and GM-CSF (10 ng/ml each). At weekly intervals, the cultures were demi-depopulated and supplemented with fresh medium, cytokines and the peptides. After 7 weeks, cells were counted and assayed for CFUc.

HL-60 cells = assay: Copper determination in chelator treated cells (atomic absorption); assay type: cell-based, human
Experimental: Copper Determination: Cells were harvested by centrifugation at 1000×g for 5 minutes. The cell pellet was washed three times by re-suspending the cells in PBS (Ca^++ and Mg^++ free) and centrifugation at 1000×g. An aliquot containing 2×10^6 cells was then transferred into a metal-free Eppendorf tube and the cells were recovered by centrifugation at 1000×g. The cell pellet was re-suspended in 0.03 M ultra-pure nitric acid to give a concentration of 1×10^7 cells/ml. The cells were homogenized with a high shear mixer (polytron, Kinematica, Switzerland) for 1 minutes to disrupt the cell and release intracellular copper content. Cell samples were vortexed before transferring to a vial autosampler and analyzed in duplicate by a Perkin Elmer graphite furnace atomic absorption spectrophotometer at a wavelength of 324.7 nm. The samples were analyzed against copper standard solution prepared from a commercial stock solution that was diluted with 0.03 M ultra pure nitric acid.

[4] = test system: Murine erythroleukemia cells (MEL); assay: HMBA-induced differentiation and growth of erythroleukemic cells; assay type: cell-based, mouse; conditions: day 3 (Table 2)
Experimental: Mouse erythroleukemic cells (MEL): MEL cells are erythroblast like cells. Following treatment with several chemicals (differentiation inducers) the cells undergo erythroid differentiation and accumulate hemoglobin. […] At day 3 of the culture, the total number of cells and the percentage of hemoglobin-containing cells were determined (Table 2).
On day 3, total cell number and hemoglobin containing (benzidine positive) cells were determined.

[5] = polyamine chelating agents, weeks 3, 4, 6, 7 (FIGS. 21a-b)

For `O=S(=O)([O-])[O-].[Cu+2]` [Copper, Copper-sulfate], the “reversal of TEPA activities by supplemented ions” value (“reversal of TEPA activities” below) [1] was “reversed”.
In the case of `CC(C)(S)[C@@H](N)C(=O)O` [Penicilamine, penicilamine, reference compound], the “effects of transition metal chelators on CD34^+ cells” value [1] is reported as “share the same effects on CD34^+ cells as TEPA”, the “cell proliferation and generation of CFUc in long-term cultures” value (“cell proliferation and generation” for short) [2] is reported as “sustained cell proliferation and expansion of clonogenic cells” and the “concentrations with optimal activity” value ([2]; transition metal chelating agents, weeks 4, 5, 7 (FIGS. 22a-b)) is reported as 5 µM.
With Gly-Gly-His (GHK) [GGH] the “activity on differentiation of CD34^+ cells” value (from here on “activity on differentiation”) [2] was “stimulate differentiation”, the “decrease of cell number” value [3] was 10% and the “decrease of clonogenic potential (CFUc)” value [3] was 80%. The “effect on cell differentiation” value [3] was “accelerate cell differentiation”.
With iron the “reversal of TEPA activities” value [1] was “did not”.
For `O=S(=O)([O-])[O-].[Zn+2]` [Zinc, Zinc-sulfate], the “clonability of the cultures” value ([1]; Zinc alone (FIG. 10)) was “expand the clonability” and the “effect of Zinc in long term cultures” value ([2]; FIGS. 23a-b, to a smaller extent than the chelators) was “mimicked the effect of the chelating agents”.
For `NCCN` [EDA, ethylenediamine], the “cell proliferation and generation” value [2] was “support continuous cell proliferation and long-term generation of CFUc and to delay cell differentiation” and the “concentrations with optimal activity” value [2, 5] was 20 µM.
In the case of `O=[Se]([O-])[O-].[Na+].[Na+]` [selenium, sodium selenite], the “reversal of TEPA activities” value [1] is reported as “did not”.
`NCCNCCNCCN` [Triethylene tetramine, triethylene-tetramine] was tested, and the “cell proliferation and generation” value [2] was “support continuous cell proliferation and long-term generation of CFUc and to delay cell differentiation” and the “concentrations with optimal activity” value [2, 5] was 20 µM.
In the case of `O=C1CC(=O)NCCNCCCNCCN1` [1,4,8,11-Tetraaza cyclotetradecane-5,7-dione], the “Average Intracellular ppb Cu” value (HL-60 cells; 100 μM, control 49 + − 18) is reported as 274 ppb.
With `C1CNCCNCCNCCN1` [1,4,7,10-Tetraaza cyclododecane] the “activity on differentiation” value [2] was “stimulate differentiation”.
With `C[C@H](CS)C(=O)N1CCC[C@H]1C(=O)O` [Captopril, captopril, reference compound] the “effects of transition metal chelators on CD34^+ cells” value [1] was “share the same effects on CD34^+ cells as TEPA” and the “HMBA-induced differentiation of MEL cells” value [4] was “inhibited”.
For Gly-His-Lys (GGH) [GHL], the “activity on differentiation” value [2] was “stimulate differentiation”, the “decrease of cell number” value [3] was 25% and the “decrease of clonogenic potential (CFUc)” value [3] was 78%. The “effect on cell differentiation” value [3] was “accelerate cell differentiation”.
`C1CNCCNCCN1.Cl.Cl.Cl` [1,4,7-Triazacyclononane trihydrochioride] was tested, and the “Average Intracellular Cu (% of control)” value (HL-60 cells; 20 μM) was 32% and the “Average Intracellular Cu (% of control)” value (HL-60 cells; 100 μM) was 36%.
